EP2161278B1, “Single-chain coiled coil scaffold” (Complix N.V., priority 2008, dated 2010)
Peptide text beside a SMILES is read from it.

Test: Thermal denaturation of trimeric coiled coil peptides by CD thermal scan (signal at 222 nm versus temperature, curve fitting)
Assay type: physicochemical
Conditions: core mutants at positions 3a and 3d of the reference peptide with glutamine at 2a; Figure 9
Method: The said synthesized peptide was dissolved at a concentration of 292 microM in 20 mM phosphate buffer (PBS), 150 mM NaCl, pH 7.2. The CD spectra were measured between […], at 5 and 90 degrees Celsius (Figure 3). The spectrum at 5 degrees Celsius was indicative of a high alpha-helical secondary structure content, in agreement with the expectation that all heptad regions, but not all of the flanking residues, would assemble as alpha-helical coiled coils.
To analyse whether the temperature-induced transition between helical and nonhelical states was reversible, a forward (up) and backward (down) thermal scan was performed on the same sample, by recording the CD signal at […] as a function of temperature at a scanning rate of about 1 degree Celsius per minute (Figure 4). It was observed that the up and down scans almost perfectly coincided, thereby confirming the quantitative unfolding and refolding of the peptides in the sample.
It was further analyzed whether the thermal unfolding curve of Figure 4 conformed to the thermodynamic equations describing the equilibrium folding/unfolding reaction between three molecules free (monomeric) peptide and one entity of folded (trimeric) complex. This reaction is generally written as 3 peptide <=> peptide3 wherein "<=>" refers to a chemical equilibrium, "peptide" to a monomeric peptide in solution and "peptide3" to a trimeric entity in the folded (assembled, associated) state. This thermal unfolding curve was fitted to the theoretic equations: θ(T) = θM (T) + (θT(T)-θM(T))(1+root(F(-(1)/(2)+sqrt((1)/(4) + (F)/(27))), 3)+root(F(-(1)/(2)-sqrt((1)/(4) + (F)/(27))), 3)) [formula] wherein F = (exp(-(ΔHt)/(RT)(1-T/T1)-(ΔCp)/(RT)(T-Tt-Tln(T/Tt))))/(4) [formula] and T≡ the temperature, in degrees Kelvin, of the sample θ(T)≡ the CD-signal [theta]222 nm, in deg cm^2 dmol^-1, as a function of T θM(T)≡ the CD-signal for 100% free (monomeric) peptide as a function of T θT(T) ≡ the CD-signal for 100% associated (trimeric) peptide as a function of T Tt ≡ the transition temperature, where 50% of the total peptide concentration is associated ΔHt ≡ the enthalpy difference, in kJ per mole peptide, between mono- and trimeric states ΔCp ≡ the heat capacity difference, in J mol^-1 K^-1, between mono- and trimeric states R ≡ the ideal (universal) gas constant ≡ 8.31 J mol^-1 K^-1
The global CD signal was somewhat lower than expected, which could be due to an instrumental deviation, an error in the concentration determination, a lower purity, or a lower than expected alpha-helical content. Nevertheless, the main goal of this experiment was to examine the effect of the glutamine-to-isoleucine mutant on the stability of the complex. […] The estimated transition temperature was around 97 degrees Celsius, although the latter was difficult to determine because of incompleteness of the transition.
All ten peptides were analyzed by thermal CD scanning as in Examples 3 and 4. Fitting of the thermal denaturation curves, as described in Example 3, gave the corresponding transition temperatures shown in Figure 9. […]
In the case of CC[C@H](C)[C@H](NC(=O)[C@H](C)NC(=O)[C@H](C)NC(=O)[C@H](CCC(N)=O)NC(=O)[C@H](CCC(N)=O)NC(=O)[C@H](CCCCN)NC(=O)[C@H](CCC(N)=O)NC(=O)[C@@H](NC(=O)[C@H](CCC(=O)O)NC(=O)[C@H](CCC(=O)O)NC(=O)[C@@H](NC(=O)[C@H](CO)NC(=O)[C@H](CCSC)NC(C)=O)[C@@H](C)CC)[C@@H](C)CC)C(=O)N[C@@H](CCC(N)=O)C(=O)N[C@@H](CCCCN)C(=O)N[C@@H](CCC(N)=O)C(=O)N[C@@H](CC(C)C)C(=O)N[C@@H](C)C(=O)N[C@@H](C)C(=O)N[C@H](C(=O)N[C@@H](CCC(N)=O)C(=O)N[C@@H](CCCCN)C(=O)N[C@@H](CCC(N)=O)C(=O)N[C@H](C(=O)N[C@@H](Cc1ccc(O)cc1)C(=O)N[C@@H](CCCNC(=N)N)C(=O)N[C@@H](CCSC)C(=O)N[C@H](C(=O)N1CCC[C@H]1C(N)=O)[C@@H](C)O)[C@@H](C)CC)[C@@H](C)CC [3aL] (Ac-MSIEEIQKQQAAIQKQLAAIQKQIYRMTP-NH2), the “effect of core substitution on stability (transition temperature) compared to the reference peptide comprising isoleucine at positions 3a and 3d” value is reported as “slightly stabilizing effect”.
With CC[C@H](C)[C@H](NC(=O)[C@H](C)NC(=O)[C@H](C)NC(=O)[C@H](CCC(N)=O)NC(=O)[C@H](CCC(N)=O)NC(=O)[C@H](CCCCN)NC(=O)[C@H](CCC(N)=O)NC(=O)[C@@H](NC(=O)[C@H](CCC(=O)O)NC(=O)[C@H](CCC(=O)O)NC(=O)[C@@H](NC(=O)[C@H](CO)NC(=O)[C@H](CCSC)NC(C)=O)[C@@H](C)CC)[C@@H](C)CC)C(=O)N[C@@H](CCC(N)=O)C(=O)N[C@@H](CCCCN)C(=O)N[C@@H](CCC(N)=O)C(=O)N[C@@H](CO)C(=O)N[C@@H](C)C(=O)N[C@@H](C)C(=O)N[C@H](C(=O)N[C@@H](CCC(N)=O)C(=O)N[C@@H](CCCCN)C(=O)N[C@@H](CCC(N)=O)C(=O)N[C@H](C(=O)N[C@@H](Cc1ccc(O)cc1)C(=O)N[C@@H](CCCNC(=N)N)C(=O)N[C@@H](CCSC)C(=O)N[C@H](C(=O)N1CCC[C@H]1C(N)=O)[C@@H](C)O)[C@@H](C)CC)[C@@H](C)CC [3aS] (Ac-MSIEEIQKQQAAIQKQSAAIQKQIYRMTP-NH2) the “effect of core substitution on stability (transition temperature) compared to the reference peptide comprising isoleucine at positions 3a and 3d” value was “disruptive”.
In the case of CC[C@H](C)[C@H](NC(=O)[C@H](C)NC(=O)[C@H](C)NC(=O)[C@H](CCC(N)=O)NC(=O)[C@H](CCC(N)=O)NC(=O)[C@H](CCCCN)NC(=O)[C@H](CCC(N)=O)NC(=O)[C@@H](NC(=O)[C@H](CCC(=O)O)NC(=O)[C@H](CCC(=O)O)NC(=O)[C@@H](NC(=O)[C@H](CO)NC(=O)[C@H](CCSC)NC(C)=O)[C@@H](C)CC)[C@@H](C)CC)C(=O)N[C@@H](CCC(N)=O)C(=O)N[C@@H](CCCCN)C(=O)N[C@@H](CCC(N)=O)C(=O)N[C@H](C(=O)N[C@@H](C)C(=O)N[C@@H](C)C(=O)N[C@@H](CO)C(=O)N[C@@H](CCC(N)=O)C(=O)N[C@@H](CCCCN)C(=O)N[C@@H](CCC(N)=O)C(=O)N[C@H](C(=O)N[C@@H](Cc1ccc(O)cc1)C(=O)N[C@@H](CCCNC(=N)N)C(=O)N[C@@H](CCSC)C(=O)N[C@H](C(=O)N1CCC[C@H]1C(N)=O)[C@@H](C)O)[C@@H](C)CC)[C@@H](C)CC [3dS] (Ac-MSIEEIQKQQAAIQKQIAASQKQIYRMTP-NH2), the “effect of core substitution on stability (transition temperature) compared to the reference peptide comprising isoleucine at positions 3a and 3d” value is reported as “disruptive”.
